Patent US12180202B1, “2-[(1,3-benzothiazol-2-yl)imino]-5,5-diphenylimidazolidin-4-one as an antimicrobial compound” (KING FAISAL UNIVERSITY, priority 2023, dated 2024)

Experiments:
Format in all cases: cell-based
[1] = test system: Escherichia coli; assay: agar plate disc-diffusion, antibacterial activity; conditions: nutrient agar, 37° C., 48 h
Experimental: (§1) The agar plate disc-diffusion method was applied. […] The discs were then placed onto the surface of agar plates (nutrient agar for bacteria and Sabouraud's dextrose agar for fungi) seeded with the test organism. Each plate contained 15 mL of the agar medium, previously seeded with 0.2 mL of the broth culture of each organism pregrown for 18 hours. The plates were incubated at 37° C. for 48 h, and 72 h for fungi. The inhibition zones were measured in mm. Discs impregnated with DMSO were used as a control, and its inhibition zone was subtracted from the tested compound actual inhibition zone.

[2] = test system: Pseudomonas aeruginosa; assay: agar plate disc-diffusion, antibacterial activity; conditions: nutrient agar, 37° C., 48 h
Experimental: as §1

[3] = test system: Bacillus cereus; assay: agar plate disc-diffusion, antibacterial activity; conditions: nutrient agar, 37° C., 48 h
Experimental: as §1

[4] = test system: Staphylococcus aureus; assay: agar plate disc-diffusion, antibacterial activity; conditions: nutrient agar, 37° C., 48 h
Experimental: as §1

[5] = test system: Aspergillus flavus; assay: agar plate disc-diffusion, antifungal activity; conditions: Sabouraud's dextrose agar, 72 h
Experimental: as §1

[6] = test system: Chrysosporium keratinophilum; assay: agar plate disc-diffusion, antifungal activity; conditions: Sabouraud's dextrose agar, 72 h
Experimental: as §1

[7] = test system: different microbes; assay: antimicrobial activity screening, overall statement; conditions: against different microbes (bacteria and fungi of Tables 1 and 2)
Experimental: The agar plate disc-diffusion method was applied. Sterilized filter papers (6 mm in diameter) were wetted with 10 μL of a solution of 2-[(1,3-benzothiazol-2-yl)imino]-5,5-diphenylimidazolidin-4-one (3) to be tested, containing 10 mg/mL in DMSO, and the discs were allowed to air dry. The discs were then placed onto the surface of agar plates (nutrient agar for bacteria and Sabouraud's dextrose agar for fungi) seeded with the test organism. Each plate contained 15 mL of the agar medium, previously seeded with 0.2 mL of the broth culture of each organism pregrown for 18 hours. The plates were incubated at 37° C. for 48 h, and 72 h for fungi. The inhibition zones were measured in mm. Discs impregnated with DMSO were used as a control, and its inhibition zone was subtracted from the tested compound actual inhibition zone.

[8] = B = concentration of comp. = 30,000 μL
[9] = C = concentration of comp. = 50,000 μL
[10] = A = concentration of comp. = 10,000 μL
[11] = A = concentration of comp. = 10 mg/mL

SMILES	inhibition zone ([1]; A =) [mm]	inhibition zone [1, 8] [mm]	inhibition zone [1, 9] [mm]	inhibition zone [2, 10] [mm]	inhibition zone [2, 8] [mm]	inhibition zone [2, 9] [mm]	inhibition zone [3, 10] [mm]	inhibition zone [3, 8] [mm]	inhibition zone [3, 9] [mm]	inhibition zone [4, 10] [mm]	inhibition zone [4, 8] [mm]	inhibition zone [4, 9] [mm]	inhibition zone [5, 11] [mm]	inhibition zone [5, 8] [mm]	inhibition zone [5, 9] [mm]	inhibition zone [6, 10] [mm]	inhibition zone [6, 8] [mm]	inhibition zone [6, 9] [mm]	antimicrobial activities [7]
O=C1N/C(=N/c2nc3ccccc3s2)NC1(c1ccccc1)c1ccccc1 [Compound 3, 2-[(1,3-benzothiazol-2-yl)imino]-5,5-diphenylimidazolidin-4-one]	26	34	50	24	28	45	20	23	35	19	23	35	21	25	31	26	29	45	excellent antimicrobial activities
O=C(O)c1cn(C2CC2)c2cc(N3CCNCC3)c(F)cc2c1=O [Cip., ciprofloxacin, reference compound]	30	39	60	29	30	53	29	30	42	43	44	53	29	30	42	29	30	53	
